Assay results from patent publication US20230129364A1, “PYRROLIDINE DERIVATIVE, AND PHARMACEUTICAL COMPOSITION FOR PREVENTING OR TREATING BETA-AMYLOID OR TAU PROTEIN-ASSOCIATED DISEASES CONTAINING SAME” (YONSEI UNIVERSITY, UNIVERSITY - INDUSTRY FOUNDATION (UIF), priority 2019, published 2023).

What was measured:
P-Tau (S356) = target: T1, P-Tau (S356) (Homo sapiens, UniProt P10636, P618L); assay: Phosphorylated tau degradation in HEK293T P301L mutant cell line, Western blot, P-Tau S356; format: cell-based; conditions: 72 hours, HEK293T P301L cells, Western blot quantified with Image J
T1 construct: host or cells: HEK293T
Excerpt: (§1) Specifically, the pRK5-EGFP-Tau P301L vector from Addgene (Addgene, MA, USA) was purchased and used in order to stably express P301L, which is a known representative mutation of pathological tau, in HEK293T cells. The P301L vector was inserted into HEK293T cells using a FuGENE HD transfection reagent (Promega, WI, USA) and then stabilized. The cells were removed therefrom and then only the cells into which the vector was inserted were isolated using a fluorescence-activated cell sorter (BD FACS Aria III, BD Bioscience, NJ, USA). After the isolated cells were incubated for 2 to 3 days, they were removed again and separated and cultured using a FACS twice to finally obtain a HEK293T P301 mutant cell line.
(§2) The obtained cells were seeded in each well of a 6-well plate and stabilized for 18 hours, and then each well was treated with the compound of Example 1 such that the final concentration reached 1 or 10 μM. The control group was treated with the same concentration (0.01%) of DMSO used as the solvent of the compound of Example. 72 hours later, the protein was extracted with a lysis buffer and quantified, and then Western blot was performed. A protein sample was electrophoresed on a 4-20% mini-PROTEIN TGX precast protein gel (Bio-Rad, CA, USA) and transferred to a PVDF membrane (Immobilon-P, Merck, Darmstadt, Germany). The primary antibodies used herein were P-Tau AT8 (#MN1020), P-Tau S396 (#44-752G), and P-Tau S356 (#44-751G) from ThermoFisher scientific (MA, USA), and GAPDH (SC-47724) from SANTA CRUZ Biotechnology (TX, USA). The secondary antibody used herein was rabbit/mouse IgG from GeneTex (CA, USA). The image obtained through ImageQuant LAS 4000 (GE healthcare, IL, USA) and the result of quantification using an Image J program are shown in FIG. 1.

pathological (P301S) tau = target: T2, pathological (P301S) tau (Homo sapiens, UniProt P10636, P618S); assay: SPR binding affinity of tau PROTAC to P301S tau; conditions: CM5 sensor chip, concentration-dependent kinetic assay, read-out: binding affinity (Ka) to the P301S tau
T2 construct: made in house; host or cells: Star pLysS cells (E. coli), pRSET-B vector, IPTG induction
Protocol: (§3) The following experiment was performed to verify that the compound according to the present invention selectively degrades only phosphorylated tau. In order to biophysically analyze selective binding of the tau PROTAC to P301S, which is known as a representative mutant of pathological tau, non-pathological (WT) tau and pathological (P301S) tau were cloned into pRSET-B vectors to obtain plasmids. Star pLysS cells were used to overexpress proteins and 1 mM IPTG was added to the medium at an OD600 of 0.4 to 0.6. The intracellular proteins were extracted from the cells lysed in a lysis buffer through heat shock (95° C.), and WT tau and P301S tau were obtained at a high purity (>95%) using cation exchange chromatography and size exclusion chromatography.
(§4) Whether or not the obtained proteins bound to the tau PROTAC was determined through an SPR experiment. A CM5 sensor chip including dextran attached thereto was used, tau PROTAC was allowed to flow and the binding affinity between the protein and the compound was determined based on a response unit (RU). The binding affinity (Ka) to the protein was measured using concentration-dependent kinetic assay. The results of measurement of binding affinity between the tau PROTAC compound and non-pathological WT Tau or pathological P301S tau are shown in FIG. 2. […]

[1] = target: T3, non-pathological (WT) tau (Homo sapiens, UniProt P10636); assay: SPR binding affinity of tau PROTAC to WT tau; conditions: CM5 sensor chip, concentration-dependent kinetic assay, nonpathological WT tau, read-out: binding affinity (Ka) to tau
T3 construct: made in house; host or cells: Star pLysS cells (E. coli), pRSET-B vector, IPTG induction
Protocol: as §3, §4

P-Tau AT8 (S202, T205) = target: T4, P-Tau AT8 (S202, T205) (Homo sapiens, UniProt P10636, P618L); assay: Phosphorylated tau degradation in HEK293T P301L mutant cell line, Western blot, P-Tau AT8; format: cell-based; conditions: 72 hours, HEK293T P301L cells, Western blot quantified with Image J
T4 construct: host or cells: HEK293T
Excerpt: as §1, §2

P-Tau (S396) = target: T5, P-Tau (S396) (Homo sapiens, UniProt P10636, P618L); assay: Phosphorylated tau degradation in HEK293T P301L mutant cell line, Western blot, P-Tau S396; format: cell-based; conditions: 72 hours, HEK293T P301L cells, Western blot quantified with Image J
T5 construct: host or cells: HEK293T
Excerpt: as §1, §2

T5 sequence (P10636 1-383 isoform P10636-6 P243L): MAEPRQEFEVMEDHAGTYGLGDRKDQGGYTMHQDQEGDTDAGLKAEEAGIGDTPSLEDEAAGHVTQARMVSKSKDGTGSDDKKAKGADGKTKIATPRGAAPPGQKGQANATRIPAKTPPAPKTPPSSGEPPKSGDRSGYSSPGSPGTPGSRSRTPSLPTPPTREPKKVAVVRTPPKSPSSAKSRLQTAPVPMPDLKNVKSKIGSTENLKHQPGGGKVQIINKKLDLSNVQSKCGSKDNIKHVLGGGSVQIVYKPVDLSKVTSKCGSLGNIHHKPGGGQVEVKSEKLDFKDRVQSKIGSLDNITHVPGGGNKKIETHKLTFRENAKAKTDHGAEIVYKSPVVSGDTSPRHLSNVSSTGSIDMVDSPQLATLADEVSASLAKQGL
T4 sequence (P10636 1-383 isoform P10636-6 P243L): as above
T1 sequence (P10636 1-383 isoform P10636-6 P243L): as above
T3 sequence (P10636 1-441 isoform P10636-8): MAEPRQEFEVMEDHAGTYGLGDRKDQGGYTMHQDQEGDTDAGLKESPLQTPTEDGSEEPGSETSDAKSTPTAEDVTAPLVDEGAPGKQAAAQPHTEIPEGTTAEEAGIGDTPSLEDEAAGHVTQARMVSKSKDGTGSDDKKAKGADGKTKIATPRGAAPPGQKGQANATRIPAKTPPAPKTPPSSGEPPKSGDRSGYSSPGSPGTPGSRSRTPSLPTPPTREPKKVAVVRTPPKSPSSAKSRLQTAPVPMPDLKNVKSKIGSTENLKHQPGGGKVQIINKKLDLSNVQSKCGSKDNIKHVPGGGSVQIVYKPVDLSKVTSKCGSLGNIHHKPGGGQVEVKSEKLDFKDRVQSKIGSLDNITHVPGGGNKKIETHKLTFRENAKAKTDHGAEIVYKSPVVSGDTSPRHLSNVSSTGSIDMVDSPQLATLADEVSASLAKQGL
T2 sequence (P10636 1-441 isoform P10636-8 P301S): as the sequence (P10636 1-441 isoform P10636-8) above, with P301S counted along it

Row | Compound | phosphorylated tau degradation activity, P-Tau (S356) (P-Tau (S356); 10 μM) [%] | Kd (pathological (P301S) tau) [µM] | Kd [1] [µM] | degradation activity compared to the control group, P-Tau AT8 (S202, T205) (P-Tau AT8 (S202, T205); 10 μM) [%] | degradation activity, P-Tau (S396) (P-Tau (S396); 1 μM) [%] | degradation activity, P-Tau (S396) (P-Tau (S396); 10 μM) [%] | phosphorylated tau degradation activity, P-Tau (S356) (P-Tau (S356); 1 μM) [%] | degradation activity compared to the control group, P-Tau AT8 (S202, T205) (P-Tau AT8 (S202, T205); 1 μM) [%]
1 | CCN1C(=O)/C(=C/c2cn(Cc3cn(CCOCCOCCOCC(=O)Nc4cccc5c4C(=O)N(C4CCC(=O)NC4=O)C5=O)nn3)c3cccnc23)NC1=S (stereo not shown) [TAU-1 PROTAC, (Z)—N-(2-(2,6-dioxopiperidin-3-yl)-1,3-dioxoisoindolin-4-yl)-2-(2-(2-(2-(4-((3-((1-ethyl-5-oxo-2-thioxoimidazolidin-4-ylidene)methyl)-1H-pyrrolo[3,2-b]pyridin-1-yl)methyl)-1H-1,2,3-triazol-1-yl)ethoxy)ethoxy)ethoxy)acetamide] | 81 | 42 | 190 | 26 | 67 | 67 |  | 
2 | CCN1C(=O)/C(=C/c2cn(Cc3cn(CCOCCOCC(=O)Nc4cccc5c4C(=O)N(C4CCC(=O)NC4=O)C5=O)nn3)c3ccccc23)NC1=S (stereo not shown) [TAU-2 PROTAC, (Z)—N-(2-(2,6-dioxopiperidin-3-yl)-1,3-dioxoisoindolin-4-yl)-2-(2-(2-(4-((3-((1-ethyl-5-oxo-2-thioxoimidazolidin-4-ylidene)methyl)-1H-indol-1-yl)methyl)-1H-1,2,3-triazol-1-yl)ethoxy)ethoxy)acetamide] | 80 | 18.7 | 199 | 53 | 30 |  | 62 | 59
